From PMC10504751, “Chalcone/1,3,4-Oxadiazole/Benzimidazole hybrids as novel anti-proliferative agents inducing apoptosis and inhibiting EGFR & BRAFV^600E” (BMC Chemistry, 2023)
Read-outs that look alike come from different tables or passages of the source.

Key:
Assay in all cases: NCI one-dose SRB anti-proliferative screen
RXF 393 = type: cell-based, human; details: Homo sapiens, read-out: Cell growth inhibition %
Experimental: (§1) The twenty-four synthesized compounds were submitted to the National Cancer Institute (NCI), USA. Eighteen hybrids 7a-h, 7k-r, 7u, and 7v were selected by NCI for one-dose assessment of their anti-proliferative activities at 10 µM dose by Sulforhodamine B colorimetric assay. The assessment was performed in 60 cell lines derived from nine tumor subpanels, comprising lung, leukemia, melanoma, colon, renal, CNS, prostate, breast, and ovarian cancer cell lines.
(§2) The methodology of the NCI anti-proliferative screening has been described in details elsewhere (http://www.dtp.nci.nih.gov).

K-562 = type: cell-based, human; details: Homo sapiens, K562, read-out: Cell growth inhibition %
Experimental: as §1, §2

HCT-116 = type: cell-based, human; details: for inhibition at 10 µM: Homo sapiens, read-out: Cell growth inhibition %
Experimental: as §1, §2

MOLT-4 = type: cell-based, human; details: Homo sapiens, read-out: Cell growth inhibition %
Experimental: as §1, §2

T-47D = type: cell-based, human; details: Homo sapiens, T47D, read-out: Cell growth inhibition %
Experimental: as §1, §2

OVCAR-5 = type: cell-based; details: Homo sapiens, read-out: Cell growth inhibition %
Experimental: as §1, §2

CCRF-CEM = type: cell-based; details: Homo sapiens, read-out: Cell growth inhibition %
Experimental: as §1, §2

IGROV1 = type: cell-based; details: Homo sapiens, IGROV-1, read-out: Cell growth inhibition %
Experimental: as §1, §2

MCF7 = type: cell-based; details: Homo sapiens, read-out: Cell growth inhibition %
Experimental: as §1, §2

OVCAR-8 = type: cell-based; details: Homo sapiens, read-out: Cell growth inhibition %
Experimental: as §1, §2

UO-31 = type: cell-based; details: Homo sapiens, read-out: Cell growth inhibition %
Experimental: as §1, §2

RPMI-8226 = type: cell-based; details: Homo sapiens, read-out: Cell growth inhibition %
Experimental: as §1, §2

COLO 205 = type: cell-based; details: Homo sapiens, read-out: Cell growth inhibition %
Experimental: as §1, §2

HS 578T = type: cell-based; details: Homo sapiens, read-out: Cell growth inhibition %
Experimental: as §1, §2

UACC-62 = type: cell-based; details: Homo sapiens, read-out: Cell growth inhibition %
Experimental: as §1, §2

HCT-15 = type: cell-based; details: Homo sapiens, read-out: Cell growth inhibition %
Experimental: as §1, §2

MDA-MB-435 = type: cell-based; details: Homo sapiens, read-out: Cell growth inhibition %
Experimental: as §1, §2

SK-MEL-2 = type: cell-based; details: Homo sapiens, read-out: Cell growth inhibition %
Experimental: as §1, §2

SK-OV-3 = type: cell-based; details: Homo sapiens, read-out: Cell growth inhibition %
Experimental: as §1, §2

BT-549 = type: cell-based; details: Homo sapiens, read-out: Cell growth inhibition %
Experimental: as §1, §2

EKVX = type: cell-based; details: Homo sapiens, read-out: Cell growth inhibition %
Experimental: as §1, §2

A549/ATCC = type: cell-based; details: Homo sapiens, read-out: Cell growth inhibition %
Experimental: as §1, §2

NCI-H522 = type: cell-based; details: Homo sapiens, read-out: Cell growth inhibition %
Experimental: as §1, §2

M14 = type: cell-based; details: Homo sapiens, read-out: Cell growth inhibition %
Experimental: as §1, §2

SNB-75 = type: cell-based; details: Homo sapiens, read-out: Cell growth inhibition %
Experimental: as §1, §2

SK-MEL-28 = type: cell-based; details: Homo sapiens, read-out: Cell growth inhibition %
Experimental: as §1, §2

PC-3 = type: cell-based; details: Homo sapiens, read-out: Cell growth inhibition %
Experimental: as §1, §2

MALME-3M = type: cell-based; details: Homo sapiens, read-out: Cell growth inhibition %
Experimental: as §1, §2

HOP-62 = type: cell-based; details: Homo sapiens, read-out: Cell growth inhibition %
Experimental: as §1, §2

UACC-257 = type: cell-based; details: Homo sapiens, read-out: Cell growth inhibition %
Experimental: as §1, §2

SN12C = type: cell-based; details: Homo sapiens, read-out: Cell growth inhibition %
Experimental: as §1, §2

Compound: COc1ccc(-c2nc3cc(-c4nnc(SCC(=O)Nc5ccc(C(=O)/C=C/c6cc(OC)c(OC)c(OC)c6)cc5)o4)ccc3[nH]2)cc1 [Compound 7o, 2-{5-[2-(4-Methoxyphenyl)-1 H-benzo[d]imidazol-5-yl]-1,3,4-oxadiazol-2-ylthio}-N-{4-[(E)-3-(3,4,5-trimethoxyphenyl)acryloyl]phenyl}acetamide]
- inhibition at 10 µM (RXF 393; RXF 393, Renal cancer, NCI one dose): 0%
- inhibition at 10 µM (K-562; K-562, Leukemia, NCI one dose): 8.26%
- Growth Percent (HCT-116; HCT-116 (Colon Cancer), 10 µM one dose): 50.04%
- inhibition at 10 µM (HCT-116; HCT-116, Colon cancer, NCI one dose): 0%
- inhibition at 10 µM (MOLT-4; MOLT-4, Leukemia, NCI one dose): 9%
- inhibition at 10 µM (T-47D; T-47D, Breast cancer, NCI one dose): 0%
- inhibition at 10 µM (OVCAR-5; OVCAR-5, Ovarian Cancer, NCI one dose): 0%
- inhibition at 10 µM (CCRF-CEM; CCRF-CEM, Leukemia, NCI one dose): 0%
- inhibition at 10 µM (IGROV1; IGROV1, Ovarian Cancer, NCI one dose): 0%
- inhibition at 10 µM (MCF7; MCF7, Breast cancer, NCI one dose): 18.4%
- inhibition at 10 µM (OVCAR-8; OVCAR-8, Ovarian Cancer, NCI one dose): 0%
- inhibition at 10 µM (UO-31; UO-31, Renal cancer, NCI one dose): 12.2%
- inhibition at 10 µM (RPMI-8226; RPMI-8226, Leukemia, NCI one dose): 23.2%
- inhibition at 10 µM (COLO 205; COLO 205, Colon cancer, NCI one dose): 0%
- inhibition at 10 µM (HS 578T; HS 578T, Breast cancer, NCI one dose): 0%
- inhibition at 10 µM (UACC-62; UACC-62, Melanoma, NCI one dose): 5.12%
- inhibition at 10 µM (HCT-15; HCT-15, Colon cancer, NCI one dose): 0%
- inhibition at 10 µM (MDA-MB-435; MDA-MB-435, Melanoma, NCI one dose): 0%
- inhibition at 10 µM (SK-MEL-2; SK-MEL-2, Melanoma, NCI one dose): 0%
- inhibition at 10 µM (SK-OV-3; SK-OV-3, Ovarian Cancer, NCI one dose): 0%
- inhibition at 10 µM (BT-549; BT-549, Breast cancer, NCI one dose): 0%
- inhibition at 10 µM (EKVX; EKVX, Non-Small Cell Lung Cancer, NCI one dose): 0%
- inhibition at 10 µM (A549/ATCC; A549/ATCC, Non-Small Cell Lung Cancer, NCI one dose): 0%
- inhibition at 10 µM (NCI-H522; NCI-H522, Non-Small Cell Lung Cancer, NCI one dose): 0%
- inhibition at 10 µM (M14; M14, Melanoma, NCI one dose): 0%
- inhibition at 10 µM (SNB-75; SNB-75, CNS Cancer, NCI one dose): 1.75%
- inhibition at 10 µM (SK-MEL-28; SK-MEL-28, Melanoma, NCI one dose): 0%
- inhibition at 10 µM (PC-3; PC-3, Prostate Cancer, NCI one dose): 0%
- inhibition at 10 µM (MALME-3M; MALME-3M, Melanoma, NCI one dose): 3.93%
- inhibition at 10 µM (HOP-62; HOP-62, Non-Small Cell Lung Cancer, NCI one dose): 0%
- inhibition at 10 µM (UACC-257; UACC-257, Melanoma, NCI one dose): 0%
- inhibition at 10 µM (SN12C; SN 12C, Renal cancer, NCI one dose): 0%

Compound: O=C(CSc1nnc(-c2ccc3[nH]c(-c4ccc(Cl)cc4)nc3c2)o1)Nc1ccc(C(=O)/C=C/c2ccccc2)cc1 [Compound 7f, 2-{5-[2-(4-Chlorophenyl)-1 H-benzo[d]imidazol-5-yl]-1,3,4-oxadiazol-2-ylthio}-N-{4-[(E)-3-phenylacryloyl]phenyl}acetamide]
- inhibition at 10 µM (RXF 393; RXF 393 (Renal Cancer), NCI one dose 10 µM): 0%
- inhibition at 10 µM (K-562; K-562 (Leukemia), NCI one dose 10 µM): 8.26%
- inhibition at 10 µM (HCT-116; HCT-116 (Colon Cancer), NCI one dose 10 µM): 0%
- inhibition at 10 µM (MOLT-4; MOLT-4 (Leukemia), NCI one dose 10 µM): 9%
- inhibition at 10 µM (T-47D; T-47D (Breast Cancer), NCI one dose 10 µM): 0%
- inhibition at 10 µM (OVCAR-5; OVCAR-5 (Ovarian Cancer), NCI one dose 10 µM): 0%
- inhibition at 10 µM (CCRF-CEM; CCRF-CEM (Leukemia), NCI one dose 10 µM): 0%
- inhibition at 10 µM (IGROV1; IGROV1 (Ovarian Cancer), NCI one dose 10 µM): 0%
- inhibition at 10 µM (MCF7; MCF7 (Breast Cancer), NCI one dose 10 µM): 18.4%
- inhibition at 10 µM (OVCAR-8; OVCAR-8 (Ovarian Cancer), NCI one dose 10 µM): 0%
- inhibition at 10 µM (UO-31; UO-31 (Renal Cancer), NCI one dose 10 µM): 12.2%
- inhibition at 10 µM (RPMI-8226; RPMI-8226 (Leukemia), NCI one dose 10 µM): 23.2%
- inhibition at 10 µM (COLO 205; COLO 205 (Colon Cancer), NCI one dose 10 µM): 0%
- inhibition at 10 µM (HS 578T; HS 578T (Breast Cancer), NCI one dose 10 µM): 0%
- inhibition at 10 µM (UACC-62; UACC-62 (Melanoma), NCI one dose 10 µM): 5.12%
- inhibition at 10 µM (HCT-15; HCT-15 (Colon Cancer), NCI one dose 10 µM): 0%
- inhibition at 10 µM (MDA-MB-435; MDA-MB-435 (Melanoma), NCI one dose 10 µM): 0%
- inhibition at 10 µM (SK-MEL-2; SK-MEL-2 (Melanoma), NCI one dose 10 µM): 0%
- inhibition at 10 µM (SK-OV-3; SK-OV-3 (Ovarian Cancer), NCI one dose 10 µM): 0%
- inhibition at 10 µM (BT-549; BT-549 (Breast Cancer), NCI one dose 10 µM): 0%
- inhibition at 10 µM (EKVX; EKVX (Non-Small Cell Lung Cancer), NCI one dose 10 µM): 0%
- inhibition at 10 µM (A549/ATCC; A549/ATCC (Non-Small Cell Lung Cancer), NCI one dose 10 µM): 0%
- inhibition at 10 µM (NCI-H522; NCI-H522 (Non-Small Cell Lung Cancer), NCI one dose 10 µM): 0%
- inhibition at 10 µM (M14; M14 (Melanoma), NCI one dose 10 µM): 0%
- inhibition at 10 µM (SNB-75; SNB-75 (CNS Cancer), NCI one dose 10 µM): 1.75%
- inhibition at 10 µM (SK-MEL-28; SK-MEL-28 (Melanoma), NCI one dose 10 µM): 0%
- inhibition at 10 µM (PC-3; PC-3 (Prostate Cancer), NCI one dose 10 µM): 0%
- inhibition at 10 µM (MALME-3M; MALME-3M (Melanoma), NCI one dose 10 µM): 3.93%
- inhibition at 10 µM (HOP-62; HOP-62 (Non-Small Cell Lung Cancer), NCI one dose 10 µM): 0%
- inhibition at 10 µM (UACC-257; UACC-257 (Melanoma), NCI one dose 10 µM): 0%
- inhibition at 10 µM (SN12C; SN 12C (Renal Cancer), NCI one dose 10 µM): 0%
